Laboratory results from patent publication US5179090A, “Condensed diazepinones and medicaments containing these compounds” (priority 1989, dated 1993).

Assays:
[1] = target: T1, M receptors of the bronchial tubes (Cavia porcellus, UniProt H0W1Z3); test: Acetylcholine antagonism in anaesthetised guinea pigs: inhibition of bronchoconstriction; assay type: in vivo, guinea pig; settings: iv, 5 min; guinea pig, i.v., acetylcholine antagonism, n=4-6; read-out: -log ED50 bronchial tubes (converted)
T1 construct: Guinea pigs of both sexes (550-600 g body weight) were anaesthetised using urethane; from tissue; host or cells: bronchi of anaesthetised guinea pigs (in vivo)
Description: (§1) The methods used had the aim of confirming the selectivity of the anti-muscarine effect. Any substances which had been selected on the basis of "in vitro" investigations were investigated for
(§2) 1. selectivity of the bronchospasmolytic activity in the guinea pig,
(§3) 1. Effect on M receptors of the bronchial tubes, the heart and the bladder of anaesthetised guinea pigs
(§4) Guinea pigs of both sexes (550-600 g body weight) were anaesthetised using urethane (1.4 g/kg intraperitoneally). A cannula was introduced into the augular vein to inject the active agents. 220 I.U./kg of heparin were injected intravenously. A cannula was introduced into the trachea; the animals were artificially respirated by means of a positive pressure pump (Braun-Melsungen) using oxygen-enriched air at a rate of 80 beats per minute. A branch of the tracheal cannula was connected to a water manometer 10 cm high. The respiration volume was set such that the maximum intratracheal pressure just reached the pressure of a 10 cm water column during respiration.
(§5) The values were recorded using an IFD recording apparatus. The trachea was clamped for a short time before the test to produce the maximum possible degree of bronchoconstriction for calibration. […] The heart rate was measured using a rate detector which is triggered by arterial pulse waves.
(§6) The active substances to be tested were injected via the jugular vein, 5 minutes later the increase in tone of the bladder (in grams) the bronchial resistance (in %) and the decrease in heart rate (beats per minute) were measured after administration of acetylcholine (50 μg/kg intravenously and intraarterially). Dosage-dependency graphs were drawn by plotting the percentage inhibition of bronchoconstriction, bradycardia and the increase in tone of the bladder against the logarithm of the dosage (mole/kg) of the active agents to be investigated. The results are given as average values (n=4-6).

[2] = tested on: M receptors of the bronchial tubes; test: as above; assay type: in vivo, guinea pig; settings: for Ratio influence of bradycardia to bronchoconstriction: guinea pig, i.v., ratio heart (bradycardia) to bronchial tubes; for selectivity for smooth muscle: smooth muscle vs heart rate or saliva secretion
Description: as §1, §2, §3, §4, §5, §6

guinea pig ileum = test: In situ spasmolytic effect in guinea pigs (methacholine-induced ileum contractions); assay type: in vivo; settings: i.v.; for ED50: Cavia porcellus, iv, 5 min, guinea pig, methacholine 20 μg/kg intraarterially, n=4 to 8, read-out: -log ED50 in situ spasmolysis guinea pig ileum (converted); for Ratio saliva secretion inhibition to spasmolytic activity: rat saliva secretion vs guinea pig ileum in situ
Description: as §1
3. in situ spasmolytic activity in the guinea pig.
3 In situ spasmolytic effect in guinea pigs
Male guinea pigs (500 to 600 g body weight) were anaesthetised using urethane (1.2 g/kg intraperitoneally);cannulae Were introduced into the trachea, jugular vein and the left carotid artery. The animals were artificially respirated by means of a positive pressure pump using oxygen-enriched air at a beat frequency of 80 per minute. A 3 to 4 cm abdominal incision was made and about 15 cm of a movable loop of the ileum was removed distally while maintaining the blood circulation. The proximal part was filled with a Krebs-Ringer solution and a pressure meter was introduced into the intestine using a Millar micro-tip catheter (PC-450, 5F). A glass tube was placed vertically in the abdomen and attached to the surrounding abdominal wall such that the animal served as its own organ bath when the glass tube was filled with Krebs-Ringer solution.
The glass tube was filled with Krebs-Ringer solution until the whole of the hypogastrium was immersed. The active agents to be tested were injected via the jugular vein; 5 minutes later contractions were produced by means of methacholine (20 μg/kg intraarterially). Dosage-activity graphs were obtained by plotting the percentage suppression of contractions produced by methacholine against the logarithm of dosage amount (mole/kg) of the active substance to be tested.
The results were given as average values (n=4 to 8) (see Table II).

saliva secretion = test: Saliva secretion-inhibiting effect in the rat (pilocarpine-triggered); assay type: in vivo; settings: iv, pilocarpine 2 mg/kg subcutaneous, 50% reduction of saliva volume, read-out: -log ED50 saliva secretion inhibition rat (converted)
Experimental: as §1
2. saliva secretion-inhibiting effect in the rat, and
2. Saliva secretion-inhibitino effect in the rat
The secretion of saliva was triggered by subcutaneous administration of 2 mg/kg of pilocarpine. The saliva was absorbed using blotting paper, the surface taken up by it was determined planimetrically every 5 minutes. The dosage of the substance which reduced the volume of saliva by 50% was determined graphically.

[3] = target: T2, M receptors of the bladder (Cavia porcellus, UniProt H0W1Z3); test: Acetylcholine antagonism in anaesthetised guinea pigs: inhibition of increase in tone of the bladder; assay type: in vivo; settings: iv, 5 min, guinea pig, i.v., n=4-6, read-out: -log ED50 bladder (converted)
T2 construct: the bladder was connected to a power transducer under a resting tension of 1 gram; from tissue; host or cells: urinary bladder of anaesthetised guinea pigs (in vivo)
Description: as §1, §3, §4
A small median abdominal incision was made and the bladder was connected to a power transducer under a resting tension of 1 gram.
as §6

M receptors of the heart [4] = target: T3, M receptors of the heart (Cavia porcellus, UniProt H0VRN8); test: Acetylcholine antagonism in anaesthetised guinea pigs: inhibition of bradycardia; assay type: in vivo, guinea pig; settings: iv, 5 min; guinea pig, i.v., acetylcholine antagonism (bradycardia), n=4-6; read-out: -log ED50 heart (converted)
T3 construct: from tissue; host or cells: heart of anaesthetised guinea pigs (in vivo)
T3 sequence (H0VRN8 1-466): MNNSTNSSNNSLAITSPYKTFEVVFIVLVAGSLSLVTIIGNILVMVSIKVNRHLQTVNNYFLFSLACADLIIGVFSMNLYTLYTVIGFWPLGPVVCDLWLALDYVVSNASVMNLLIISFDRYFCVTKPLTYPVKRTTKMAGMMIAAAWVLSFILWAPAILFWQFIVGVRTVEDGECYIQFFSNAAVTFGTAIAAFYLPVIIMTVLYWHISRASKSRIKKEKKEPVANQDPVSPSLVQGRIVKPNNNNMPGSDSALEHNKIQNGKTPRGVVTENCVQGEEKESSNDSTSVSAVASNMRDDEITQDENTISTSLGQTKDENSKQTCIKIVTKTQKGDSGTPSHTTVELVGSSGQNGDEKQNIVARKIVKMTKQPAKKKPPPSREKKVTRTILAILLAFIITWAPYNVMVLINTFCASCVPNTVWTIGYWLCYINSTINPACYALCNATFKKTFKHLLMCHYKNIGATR
Description: as §1, §3, §4, §5, §6

[5] = target: T4, muscarine receptors of the vestibule (Cavia porcellus, UniProt H0VRN8); test: In vitro dissociation constant on spontaneously beating vestibule (heart), methacholine antagonism; assay type: cell-based; settings: guinea pig spontaneously beating vestibule
T4 construct: in the removed, spontaneously beating right vestibule; from tissue; host or cells: isolated spontaneously beating right atrium ('vestibule') of guinea pig
T4 sequence (H0VRN8 1-466): T3 sequence (H0VRN8 1-466)
Experimental: (§7) Substances having anti-muscarine properties inhibit the effects of exogenically introduced agonists or of acetylcholine which is released from cholinergic nerve endings. A description of methods which are suitable for determining spasmolytically active anti-muscarine agents is given below.
(§8) Dissociation constants ([…]) were determined "in vitro" on the ileum and spontaneously beating vestibule of a guinea pig. The ileum was removed and incubated in an organ bath in Krebs- Henseleit solution. Contractions were induced by increasing concentrations of methacholine (M) such that complete concentration-activity graphs could be plotted. M was then washed out, the substance to be investigated was added and incubated for 30 minutes, and once again a concentration-activity graph was plotted using M.
The dissociation constant according to Arunlakshana and Schild (Brit. J. Pharmacol. 14; 48 (1959)) Was calculated from the dosage ratio (DR) which is the measure of the displacement of the concentration-activity graph.
M reduced the heart rate as a function of concentration in the removed, spontaneously beating right vestibule. This effect was cancelled again by adding an anti-muscarine agent. Dissociation constants for the muscarine receptors of the vestibule were obtained in the same manner as described above. The comparison of the dissociation constants determined in both tissues permitted the identification of selectively spasmolytically active substances.

[6] = target: T5, muscarine receptors in the ileum (Cavia porcellus, UniProt H0W1Z3); test: In vitro dissociation constant on ileum, methacholine antagonism; assay type: cell-based, guinea pig; settings: guinea pig ileum
T5 construct: The ileum was removed and incubated in an organ bath; from tissue; host or cells: isolated ileum of guinea pig
Experimental: as §7, §8
(§9) Dissociation constants for the muscarine receptors of the vestibule were obtained in the same manner as described above.

[7] = tested on: muscarine receptors in the ileum; test: as above; assay type: cell-based, guinea pig; settings: guinea pig
Experimental: as §7, §8, §9

M receptors of the heart [8] = test: Acetylcholine antagonism in anaesthetised guinea pigs: inhibition of bradycardia; assay type: in vivo, guinea pig; settings: comparison, Tables I and III
Description: as §1, §3, §4, §5, §6

T5 sequence (H0W1Z3 1-590): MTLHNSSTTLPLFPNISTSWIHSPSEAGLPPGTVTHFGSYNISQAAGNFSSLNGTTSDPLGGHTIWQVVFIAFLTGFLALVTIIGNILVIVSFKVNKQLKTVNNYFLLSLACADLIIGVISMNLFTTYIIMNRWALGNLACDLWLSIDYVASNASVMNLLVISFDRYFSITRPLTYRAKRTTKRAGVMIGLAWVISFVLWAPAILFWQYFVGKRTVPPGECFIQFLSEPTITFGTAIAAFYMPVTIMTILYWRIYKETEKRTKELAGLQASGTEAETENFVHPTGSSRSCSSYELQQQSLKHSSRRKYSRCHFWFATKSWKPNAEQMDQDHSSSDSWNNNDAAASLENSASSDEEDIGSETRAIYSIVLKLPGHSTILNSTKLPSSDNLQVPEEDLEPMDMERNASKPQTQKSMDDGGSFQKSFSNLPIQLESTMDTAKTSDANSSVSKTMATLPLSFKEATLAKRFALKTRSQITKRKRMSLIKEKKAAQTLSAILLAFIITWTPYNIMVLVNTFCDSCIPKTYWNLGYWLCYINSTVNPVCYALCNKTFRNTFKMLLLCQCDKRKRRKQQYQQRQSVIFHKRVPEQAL
T1 sequence (H0W1Z3 1-590): as above
T2 sequence (H0W1Z3 1-590): as above

Row | ED50 [1] [µmol/kg] | ED50 [3] [µmol/kg] | Kb [5] [nM] | Kb [6] [nM] | SMILES | Ratio influence of bradycardia to bronchoconstriction [2] | ED50 (guinea pig ileum) [µmol/kg] | Ratio saliva secretion inhibition to spasmolytic activity (guinea pig ileum) | ED50 (saliva secretion) [µmol/kg] | ED50 (M receptors of the heart [4]) [µmol/kg] | selectivity for smooth muscle [2] | Selectivity KB heart to KB ileum [7] | effectiveness on cardiac muscarine receptors (M receptors of the heart [8])
1 | 0.631 | 3.02 | – | – | CN1CC2CN(C(=O)N3c4ccccc4C(=O)Nc4cccnc43)CC2C1 (centres unmarked) [C] | 8 | 0.708 | 4 | 2.95 | 4.79 | – | – | –
2 | 0.0891 | 1.58 | – | – | Cc1scc2c1N(C(=O)N1CC3CN(C)CC3C1)c1ccccc1NC2=O (centres unmarked) [D] | 8 | – | – | – | 0.741 | – | – | –
3 | 0.049 | 0.49 | 209 | 30.2 | CN1CCC2C1CCN2C(=O)N1c2ccccc2C(=O)Nc2cccnc21 (centres unmarked) [A] | 21 | 0.117 | 2 | 0.2 | 1.05 | very marked smooth muscle selectivity | 6.9 | –
4 | 0.0447 | 0.813 | 145 | 60.3 | CN1CCC2C1CCN2C(=O)N1c2ccccc2NC(=O)c2cccnc21 (centres unmarked) [B] | 44 | – | – | – | 1.95 | very marked smooth muscle selectivity | 2.4 | –
5 | 2.63 | 11.7 | 105 | 617 | CN(C)CC1CCCCN1CC(=O)N1c2ccccc2C(=O)Nc2cccnc21 (centres unmarked) [X] | 0.5 | – | – | – | 1.45 | – | 0.17 | higher effectiveness on cardiac muscarine receptors

Row | SMILES | ED50 [1] [µmol/kg] | ED50 [3] [µmol/kg] | Kb [5] [nM] | Kb [6] [nM] | Ratio influence of bradycardia to bronchoconstriction [2] | ED50 (guinea pig ileum) [µmol/kg] | Ratio saliva secretion inhibition to spasmolytic activity (guinea pig ileum) | ED50 (saliva secretion) [µmol/kg] | ED50 (M receptors of the heart [4]) [µmol/kg] | selectivity for smooth muscle [2] | Selectivity KB heart to KB ileum [7] | effectiveness on cardiac muscarine receptors (M receptors of the heart [8])
6 | CN1CCN(CC(=O)N2c3ccccc3C(=O)Nc3cccnc32)CC1 [Y] | 0.269 | 1.45 | 123 | 194 | 5 | 0.832 | 0.5 | 0.38 | 1.26 | no selectivity | 0.63 | –
7 | CN1[C@@H]2CC[C@H]1CC(OC(=O)C(CO)c1ccccc1)C2 (some centres unmarked) [Z] | 0.00813 | 0.0525 | – | – | – | 0.0525 | – | – | 0.0269 | – | – | –
